Laboratory results taken from patent publication US20240216412A1, “OXIDIZED NICOTINAMIDE ADENINE DINUCLEOTIDE (NAD+) PRECURSOR TREATMENT FOR HEART FAILURE ALLEVIATION INDEPENDENT OF MITOCHONDRIAL PROTEIN DEACETYLATION” (University of Washington, priority 2022, published 2024).

What was measured:
[1] = tested on: WT TAC heart transcriptome; experiment: RNA sequencing with GSEA of TAC hearts; format: in vivo, mouse; details: NR treated TAC hearts vs vehicle
Description: RNA Sequencing. Total RNA was extracted from 30 mg of heart tissue using the Qiagen RNeasy kit. RNA Sequencing and quality control was performed BGI (BGISEQ-500). Data Analysis-RNAseq samples were aligned using Tophat (Trapnell et al., 2009) (version 2.0.13). Genelevel read counts were quantified using htseq-count (Anders et al., 2015). Genes expressed above 4TPM in at least 2 samples were used. In differential expression (DESeq), A gene to have total normalized reads above 10 across all samples. DeSeq (Anders and Huber, 2010) was used for differential gene expression analysis. Genes with fold change >1.5 and FDR <0.1 were considered differentially expressed. GSEA was performed using Broad Institute software against the Reactome database. Iregulon v1.3 was used to predict transcription factor binding motif. The following options were used: Motif collection 10 K (9713 PWMs), putative regulatory region 20 kb centered around TSS (7 species). Program default settings for Recovery and Transcription factor prediction options were selected for the analysis.

[2] = tested on: fatty acid oxidation (acylcarnitines) in heart; experiment: Cardiac acyl-carnitine profiling (LC/MS); format: in vivo, mouse
Description: Cardiac acyl-carnitines. Metabolites were extracted from frozen heart tissue (10 mg) by precipitating in 80:20% methanol:water following the addition of 1 ug/ml internal standard (C16 palmitoylcarnitine, d3, Cambridge Isotope Laboratories, Inc.). After centrifugation, the supernatant was transferred to LC/MS auto sampler vials (Thermo Fisher). The protein pellet was redissolved in 0.1 M NaOH and protein concentration measured for normalization.
Acyl-carnitines were analyzed using a Triple TOF—5600 (AB Sciex) series mass spectrometer in line with a Water Acquity I-class UPLC. Chromatographic separation was achieved using an Acquity UPLC BEH HILIC, 1.7 micron, 2.1×100 mm column (Waters) with a flow rate of 0.5 ml/min. Total run time was 22 minutes. The mobile phase was composed of two solvents: A=5 mM Ammonium Acetate in 95:5 acetonitrile:water and B=5 mM Ammonium Acetate in 50:50 acetonitrile:water using the following gradient.
Samples were analyzed in positive electrospray ionization (ESI+) with a mass range from 50-1000 Da. […] Additional acyl-carnitines were identified by their m/z value as compared to theoretical values determined by the molecular formula ±0.003 D. Peak areas intensities were normalized to protein concentration.

**Q.** Which “Pathways of genes significantly downregulated (GSEA)” value [1] does the source give for `NC(=O)c1ccc[n+]([C@@H]2O[C@H](CO)[C@@H](O)[C@H]2O)c1` [NR, Nicotinamide riboside chloride] here?
**A.** enriched in pathways relating to collagen formation and extracellular matrix organization

**Q.** And the “Pathways of genes significantly upregulated (GSEA)” value [1]?
**A.** enriched in pathways relating to mitochondrial metabolism

**Q.** What about the “Tissue content of lipid derived acylcarnitines and hydroxy-acylcarnitines” value ([2]; NR treated TAC hearts, to level similar to WT-Sham) of the same compound?
**A.** increased

**Q.** And the “C16 (palmitoylcarnitine) levels” value ([2]; WT and Sirt3ko NR treated TAC hearts vs vehicle)?
**A.** increased
